Common to all, as to type: biochemical
Assay [1] has as its system Helianthus annuus EPSPS with 868-H6 mutations, SEQ ID NO:10. Kind of assay: EPSPS substrate saturation kinetics, sunflower H6. Particulars: PEP. As for the experimental part:
(§1) EPSPS activity was determined by quantifying the phosphate generated from the EPSPS reaction. Release of inorganic phosphate was coupled to reaction with 2-amino-6-mercapto-7-methylpurine ribonucleoside, catalyzed by purine-nucleoside phosphorylase (M R Webb, Proc. Natl. Acad. Sci. 89:4884-4887, 1992). The absorbance change that occurs was monitored at 360 nm, where the extinction is 11,200 M^−1 cm^−1, with a Spectramax plate reader (Molecular Devices). To determine kinetic parameters, the varied substrate was present at seven concentrations (the eighth being the blank, containing no substrate) ranging from 4 to 400 uM and the unvaried substrate present at saturation. […] Reactions were monitored with a Spectramax plate reader. […] KI was then calculated from the following form of the Michaelis-Menten equation for competitive inhibition: KI=KM[I]/(KM app−KM) KM approximates the dissociation constant of the enzyme-substrate complex while kcat is the rate of conversion of substrate to product when the substrate concentration is saturating. kcat/KM is a widely accepted parameter for catalytic efficiency when substrate concentration is low (˜KM). […] The parameter kcat/KM×KI is used to quantify both catalytic efficiency and insensitivity and thus the overall fitness of the enzyme.
(§2) Native EPSPS amino acid sequences of rice (Oryza sativa) (SEQ ID NO:7), sorghum (Sorghum halepense) (SEQ ID NO:8), and sunflower (Helianthus annus) (SEQ ID NO:9) including the chloroplast transit peptide sequences were assembled and analyzed for mapping the corresponding amino acid mutations from the maize 868-H6. […]
(§3) ChloroP Prediction Server (Emanuelsson, O. et al. 1999. Protein Sci. 8(5):978-84) was used to approximate the amino terminus of the mature EPSPS proteins. […] The synthetic genes were cloned into a plasmid vector and expressed, purified and analyzed as described in Example 1.

For assay [2], the target named is Bacterial EPSPS (CP4) (Agrobacterium sp., UniProt Q9R4E4). Kind of assay: Rapid two-rate method for (kcat/KM)*KI, bacterial EPSPS (CP4). From the text:
There are several practical considerations for accurately estimating (kcat/KM)*KI with the rapid method. […] 2) The inhibitor concentration must be adjusted so as to obtain a degree of inhibition that minimally amplifies the error in the term v0-vi in Equation 3. If inhibition is too little, v0-vi will be small, and the error in the multiplier vi×v0/(v0-vi) will be large. […] 3) Substrate concentration should be set at the approximate KM of the parental variant(s), subject to the sensitivity of the assay. High substrate concentration obscures sensitivity to the inhibitor and reduces stringency for capturing improvements in KM. Depending on the necessity for speed, there exists opportunity for customizing enzyme and inhibitor concentrations. […] The rapid method was repeated for those and obtained data that correlated better with data obtained by substrate saturation analysis. For screening purposes however, that correlation step is not necessary. Conditions can be set so that variants with a pre-determined minimal fitness level are accurately quantified.
In Table 15, parameters above the heavy line for the rapid method were obtained under standard conditions. For variants shown below the heavy line, the rapid analysis was repeated with enzyme or glyphosate concentrations adjusted as needed to generate sufficient signal within the limits for linear initial rates.

In assay [3] the target is Helianthus annuus EPSPS with 868-H6 mutations, SEQ ID NO:10 (Helianthus annuus, UniProt A0A251S0N3, A489G/D475G/E144Q/E375S/E464G/G175A/L171C/Q70R/R514Q/S352A/T434S/T72W/V156R/V281L/V511R). Kind of assay: EPSPS substrate saturation kinetics, sunflower H6. The method, then: as §1, §2, §3
Assay [4] concerns the target T1, Zea mays EPSPS variant Zm-H6 (868-H6) with H54E (H6-H54E) (Zea mays, UniProt O24566, A1R/A3W/A415G/A71Q/D401G/E301S/E390G/G101A/H53E/I207L/K83R/L97C/T278A/T360S/T440Q/V437R).
T1 construct: 868-H6 plus H54E; E. coli BL21(DE3), Ni-NTA purified
T1 sequence (O24566 with tags, fused parts or gaps A1R/A3W/H53E/A71Q/K83R/L97C/G101A/I207L/T278A/E301S/T360S/E390G/D401G/A415G/V437R/T440Q): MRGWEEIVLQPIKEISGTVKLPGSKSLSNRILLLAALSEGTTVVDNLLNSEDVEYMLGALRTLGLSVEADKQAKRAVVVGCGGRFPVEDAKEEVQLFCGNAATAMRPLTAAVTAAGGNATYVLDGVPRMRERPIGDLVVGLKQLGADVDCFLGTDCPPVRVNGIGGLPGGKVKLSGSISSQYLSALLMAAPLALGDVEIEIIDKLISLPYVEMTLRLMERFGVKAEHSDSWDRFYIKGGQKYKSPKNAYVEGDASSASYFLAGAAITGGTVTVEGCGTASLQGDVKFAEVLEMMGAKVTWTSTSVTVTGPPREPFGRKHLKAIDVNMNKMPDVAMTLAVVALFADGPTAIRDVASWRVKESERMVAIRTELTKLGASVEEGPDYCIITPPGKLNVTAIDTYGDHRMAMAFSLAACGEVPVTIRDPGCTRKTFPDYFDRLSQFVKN
The assay can be described thus: Substrate saturation kinetic analysis with glyphosate, H6-H54E.

The record followed here is patent publication US11549123B2, “Plant EPSP synthases and methods of use” (PIONEER HI-BRED INTERNATIONAL, INC., priority 2015, dated 2023).

Helianthus annuus EPSPS with 868-H6 mutations, SEQ ID NO:10 (Helianthus annuus, UniProt A0A251S0N3, A489G/D475G/E144Q/E375S/E464G/G175A/L171C/Q70R/R514Q/S352A/T434S/T72W/V156R/V281L/V511R), sequence (A0A251S0N3 67-518 with the stated changes): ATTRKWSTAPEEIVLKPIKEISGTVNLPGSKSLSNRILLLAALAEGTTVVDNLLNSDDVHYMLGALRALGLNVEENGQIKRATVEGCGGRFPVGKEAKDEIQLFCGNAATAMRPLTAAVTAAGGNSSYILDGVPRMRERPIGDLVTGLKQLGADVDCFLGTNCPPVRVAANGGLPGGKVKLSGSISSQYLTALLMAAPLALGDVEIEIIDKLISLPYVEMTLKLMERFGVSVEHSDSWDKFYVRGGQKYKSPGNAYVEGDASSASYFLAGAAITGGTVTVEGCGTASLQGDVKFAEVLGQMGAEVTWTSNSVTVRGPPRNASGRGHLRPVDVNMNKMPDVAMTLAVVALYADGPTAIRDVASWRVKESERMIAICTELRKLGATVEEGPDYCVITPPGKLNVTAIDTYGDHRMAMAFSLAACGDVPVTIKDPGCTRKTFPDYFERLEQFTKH
Bacterial EPSPS (CP4), sequence (Q9R4E4 whole entry): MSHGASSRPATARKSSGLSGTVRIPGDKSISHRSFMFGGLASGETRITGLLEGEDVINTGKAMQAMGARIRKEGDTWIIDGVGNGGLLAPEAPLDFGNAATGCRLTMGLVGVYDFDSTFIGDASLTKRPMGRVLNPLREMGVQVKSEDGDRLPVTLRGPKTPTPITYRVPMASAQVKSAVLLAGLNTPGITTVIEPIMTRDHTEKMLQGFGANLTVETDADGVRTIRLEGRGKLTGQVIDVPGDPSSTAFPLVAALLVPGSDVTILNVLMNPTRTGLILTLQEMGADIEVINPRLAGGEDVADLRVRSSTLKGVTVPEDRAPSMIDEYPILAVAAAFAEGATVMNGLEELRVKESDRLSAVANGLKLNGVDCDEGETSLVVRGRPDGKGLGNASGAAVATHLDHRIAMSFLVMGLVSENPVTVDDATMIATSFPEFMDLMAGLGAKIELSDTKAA

In the case of `C=C(OP(=O)(O)O)C(=O)O` [PEP, phosphoenolpyruvate], in assay [1], the “kcat/KM relative to maize H6” value came to 38%.
In general, Ki refers to a measure of affinity in units of concentration, obtained from inhibition or displacement. Low values mean higher affinity, high ones lower affinity. Turning to `O=C(O)CNCP(=O)(O)O` [glyphosate, N-phosphonomethylglycine], the “(kcat/KM)*KI” value in assay [2] (rapid method repeated, CP4, [E] 0.007 uM, [Gly] 2000 uM) amounted to 111800; in assay [2] (rapid method, Bacterial EPSPS, [E] 0.07 uM, [Gly] 1000 uM), 64262; in assay [3] (PEP as substrate, glyphosate as inhibitor), 8960; in assay [4] (substrate saturation, H6-H54E), 4340. For the same molecule, the Ki in assay [3] worked out at 1580 µM; in assay [4], 488 µM.
